The text below walks through data of patent US10413555B2, “Treatment of skin atrophy with a combination of triiodothyroacetic acid (TRIAC) and dehydroepiandrosterone (DHEA)” (TROPHEA DEVELOPMENT AB, priority 2014, dated 2019).

Read-outs that look alike come from different tables or passages of the source.

The conditions of series [1]: topical corticosteroid, Group III; cited from earlier work.
A further series concerns elderly people. The settings on record: oral route; cited from earlier work.
The next series deals with Procollagen I (PINP). The experiment in a line: PINP in suction blister fluid from skin pretreated with betamethasone valerate, then treated with test formulations. It counts as in vivo, human. The settings on record: suction blister fluid after 14 days treatment. An excerpt: Six healthy male volunteers aged 40-65 years. Criteria for exclusion are: treatment with systemic or topical glucocorticoids, ongoing serious infections, immunosuppression.
TRIAC and DHEA were obtained from Sigma. They were mixed with Essex cream (Merck) to obtain 4 different study formulations: • A. 0.03% TRIAC in Essex cream • B. 0.03% TRIAC and 2% DHEA in Essex cream • C. Essex cream alone. • D. 2% DHEA in Essex cream
A proof-of-concept, single blinded, open prospective study comparing, TRIAC, DHEA and the combination of the two as compared with non-active treatment on short-term glucocorticoid-induced skin atrophy.
The test area was normal looking abdominal skin in 6 male volunteers. Four different skin areas of 10×10 cm were marked with a permanent marker pen.
All areas were pretreated twice daily with betametasone valerate (Betnovate, GSK) 0.5 gr twice daily for 21 days. Then each test area was treated, with 0.5 gr twice daily of one of the test formulations, for 14 days.
Suction blisters were induced with a disposable device (Dermovac, Ventipress, Lappeeranta, Finland) placed on the test areas and connected to a vacuum pump with a vacuum of approximately 60 mm Hg. Each device produces five suction blisters within approximately one hour. The resulting fluid was collected, using a syringe, and then combined and frozen at −70° C. […]

The test system of another series is post-menopausal women. To be noted: DHEA 1% formulation, topical, facial and hand skin, 4 months, versus vehicle; cited from earlier work.
The next series deals with metabolic effects. To be noted: cited from earlier work.
Series [2] has as its system rats. To be noted: cited from earlier work.
A further series deals with mice. The settings on record: cited from earlier work.
For the next series, the system named is psoriasis. The settings on record: TRIAC 0.1% ointment; cited from earlier work.
The test system of series [3] is patients with skin atrophy on the dorsum of their hands. The settings on record: cited from earlier work.
The test system of series [4] is rats. To be noted: rat, in vivo, 2000 mg/kg; cited from earlier work.
The next series in a line: Ames' test. It counts as cell-based. An excerpt: (§1) The genotoxic potential of TRIAC has been investigated in the Ames' test and in in vitro chromosome aberration assay in cultured human peripheral lymphocytes.
Series [5] deals with cultured human peripheral lymphocytes. The experiment in a line: In vitro chromosome aberration assay. Type of series: cell-based.
From the text: as §1

A further series deals with procollagen I and III. The settings on record: cited from earlier work.
A further series has as its system thyroid hormone levels. The settings on record: cited from earlier work.

On to `CCCCC(=O)O[C@]1(C(=O)CO)[C@@H](C)C[C@H]2[C@@H]3CCC4=CC(=O)C=C[C@]4(C)[C@@]3(F)[C@@H](O)C[C@@]21C` [Betamethasone valerate], for which the “potency relative to hydrocortisone” value in series [1] was 50-100 times.
For `C[C@]12CC[C@H](O)CC1=CC[C@@H]1[C@@H]2CC[C@]2(C)C(=O)CC[C@@H]12` [DHEA, dehydroepiandrosterone], the “effect on skin conditions” value with elderly people is “positive effect”. Also, the “PINP concentration, comparison between treatments” value in the series with Procollagen I (PINP) is recorded as “only slightly better than treatment with placebo”. Moreover, the “effect on skin aging features” value with post-menopausal women was “improved skin brightness and counteract papery appearance of the skin and epidermal atrophy”.
Consider `O=C(O)Cc1cc(I)c(Oc2ccc(O)c(I)c2)c(I)c1` [TRIAC, triiodothyroacetic acid], for which, in the series with metabolic effects (human, in vivo), the “dose necessary to obtain similar metabolic effects, relative to T3” value was “greater than 15 times”; the “dose necessary to obtain similar metabolic effects, relative to T4” value is recorded as above 10 times; the “tachycardia compared with T4 or T3” value is listed as “does not evoke tachycardia as effectively as T4 or T3”. Further, in the series with metabolic effects (oral administration, daily doses of 3.4 mg, up to 3 weeks), the tolerability entry was “well tolerated”. Besides, in the series on rats [2] (rat, in vivo, ip), the lowest lethal dose was 100 mg/kg. Moreover, the median lethal dose (LD50) (as a rule, the dose expected to kill half of the subjects tested) in the series on rats [2] (single dose, intraperitoneal, female rats) is given as 295 mg/kg. In addition, in the series with rats [2] (single dose, intraperitoneal, male rats), the median lethal dose (LD50) is 143 mg/kg. The “no observed effect level (NOEL)” value with rats [2] (single dose, intraperitoneal, suspended in 0.8% hydroxyl propyl methylcellulose gel, rats) was 46.4 mg/kg. Also, in the series with mice (TRIAC alone, 0.03%), the “skin thickness in mice pretreated with betamethasone valerate” value is recorded as “could restore skin thickness”. For the same compound, in the series on mice (topical administration, mice), the “effect on skin atrophy induced by potent topical glucocorticoids” value is given as “prevents skin atrophy”. In addition, in the series on mice (topical, mice), the “skin thickness of normal skin” value is on record as “increase skin thickness”. In the series with mice (topical, compared with vitamin A and D derivatives), the side effects result is listed as “no side effects were seen”. Also, in the series on psoriasis, the “effect on psoriasis in comparison with placebo” value is listed as “no statistically significant effects” and the “safety of topical treatment” value was “safe”. Moreover, the “skin thickness in epidermis and dermis” value in series [3] (TRIAC 0.1% cream, after 8 weeks of treatment) is given as “significantly higher”. For the same compound, in [3] (topical, patients treated with potent topical corticosteroids for hand eczema), the “effect on glucocorticoid-induced skin atrophy” value is given as “appears to reverse glucocorticoid-induced skin atrophy”. Further, the “general toxicity and local irritation” value in the series on rats [4] is “neither any clinical signs of general toxicity nor any local irritation”. Further, the genotoxic potential result in the series “Ames' test” is recorded as “no genotoxic potential”. The genotoxic potential entry in series [5] is recorded as “no genotoxic potential”. Also, the “procollagen I and III compared to placebo” value in the series on procollagen I and III (TRIAC 0.03% and 0.1% cream, both groups, 7 days after start of treatment, pre-treatment with topical betamethasone 17-valerate) was “statistically significant increase”. The “PINP synthesis compared to placebo” value in the series with procollagen I and III (TRIAC 0.03% cream, healthy volunteers, skin pretreated with betamethasone valerate) is reported as “significantly more effective”. The “effects on thyroid hormone levels” value in the series on thyroid hormone levels (all 3 clinical studies, after 8 weeks treatment) is “no significant effects”. Further, the other blood analysis result in the series on thyroid hormone levels (clinical studies (15-16)) is “normal levels”.
